In US7160733B2, “Ligand specific to β2-glycoprotein I and use thereof” (priority 2001, dated 2007):

T1: β2-GPI (Homo sapiens, UniProt P02749)
T1 construct: β2-GPI was purified from normal human plasma as described in [35] with slight modification; from tissue; host or cells: pooled normal human plasma from healthy subjects
T1 sequence (P02749 20-345): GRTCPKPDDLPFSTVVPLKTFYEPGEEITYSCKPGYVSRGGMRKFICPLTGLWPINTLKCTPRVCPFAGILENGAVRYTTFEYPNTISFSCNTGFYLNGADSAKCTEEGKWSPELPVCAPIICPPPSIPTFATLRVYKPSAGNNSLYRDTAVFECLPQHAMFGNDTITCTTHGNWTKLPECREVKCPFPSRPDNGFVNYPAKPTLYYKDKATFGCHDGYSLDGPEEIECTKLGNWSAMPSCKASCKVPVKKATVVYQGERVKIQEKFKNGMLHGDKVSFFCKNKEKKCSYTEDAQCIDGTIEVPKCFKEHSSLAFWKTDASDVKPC


Experiments:
WB-CAL-1 [1] = assay: Optical biosensor (IAsys): binding to solid phase WB-CAL-1 in the presence of β2-GPI; parameters: species or system mouse; details: β2-GPI 10 μg/mL, result in words
From the text: (§1) FIG. 1. Molecular interactions among β2-GPI, LDLs, […] (PLs), and anti-β2-GPI autoantibody, detected by an optical biosensor. • A: LDL (open square) or oxLDL (closed square) binding to solid phase β2-GPI; • B: LDL (open square) or oxLDL (closed square) binding to solid phase WB-CAL-1 in the presence of β2-GPI; • C: DOPE (open circle) or CL (closed circle) binding to solid phase β2-GPI; and • D: DOPE (open circle) or CL (closed circle) binding to solid phase WB-CAL-1 in the presence of β2-GPI.
(§2) Real-time molecular analysis was performed using an optical biosensor, IAsys (product of Affinity Sensors).
(§3) Binding of β2-GPI to LDLs or liposomes: Biotinyl-β2-GPI was immobilized on a biotinyl-cuvette via streptavidin. LDLs or liposomes at various concentrations were placed in the cuvette. Antibodies binding to LDLs or liposomes: The biotinyl-WB-CAL-1 was immobilized on the cuvette. LDLs or liposomes were added at various concentrations in the presence (10 μg/mL) or absence of β2-GPI.

β2-GPI [2] = target: T1, β2-GPI; assay: Optical biosensor (IAsys): binding to solid phase β2-GPI; details: result in words
From the text: as §1, §2, §3

WB-CAL-1 [3] = assay: ELISA on solid-phase lipid (ligand)-coated plate: WB-CAL-1 binding in presence of β2-GPI; parameters: species or system mouse; details: Absorbance, mean ± SD, n = 3; for Binding of protein-dependent oxLig-1 antibody, WB-CAL-1: Experiment 2, synthesized oxLig-1-solidified plate, added protein 15 μg/mL
Procedure: (§4) Binding to extracted lipids: A microtiter plate (Immulon 1B, Dynex Technologies Inc.) was coated with lipids extracted from LDLs (50 μg/mL, 50 μL/well) by ethanol evaporation. The wells were blocked with PBS containing 1% BSA for one hour and the wells were incubated with 30 μg/mL of β2-GPI for one hour. Then, β2-GPI binding was detected using Cof-22 and HRP-labeled anti-mouse IgG antibodies. Alternatively, an anti-β2-GPI autoantibody (Cof-22, WB-CAL-1, or EY2C9) was diluted with a 0.3% BSA-containing PBS, and the diluted antibody was added to the coated plate (1.0 μg/mL, 100 μL/well) and incubated with β2-GPI (15 μg/mL) for one hour. The binding of the antibody was detected by an HRP-labeled anti-mouse IgG /or an anti-human IgM. The color was developed with H2O2 and o-phenylenediamine, and OD was measured at 490 nm. Between these steps, extensive washing were done using PBS containing 0.05% Tween 20.
(§5) Synthesized oxLig-1 (50 μg/mL, 50 μL/well) was adsorbed by evaporation on a polystyrene plate (Immulon 1B; Dynex Technologies Inc.), and the plate was then blocked with 1% BSA. Serum samples (diluted 1:100 with PBS containing 0.3% BSA) were incubated in the wells with β2-GPI (15 μg/mL) or other proteins for one hour at room temperature. Antibody binding was detected with HRP-labeled anti-human IgG. Further steps were performed through a method as described in “anti-β2-GPI ELISA.”
(§6) CL (50 μg/mL, 50 μL/well) was adsorbed on a polystyrene plate (Immulon 1B), and further steps were performed through a method as described in “ELISA for antibodies against a protein-oxLig-1 complex.”

anti-β2-GPI antibodies = assay: ELISA of the anti-β2-GPI antibodies by use of a ligand-coated plate (results in words); format: binding
Procedure: as §4, §5

APS-1 = assay: ELISA on solid-phase lipid-coated plate: binding of antibodies of APS patient serum APS-1; parameters: species or system human; details: Absorbance, mean ± SD, n = 3; for Binding of protein-dependent oxLig-1 antibody, APS-1: Experiment 2, synthesized oxLig-1-solidified plate, added protein 15 μg/mL
Procedure: (§7) To eliminate endogenous β2-GPI in some experiments, serum samples were passed through a heparin-Sepharose column. The effluent was dialyzed against PBS and was used for ELISAs.
as §5, §6

β2-GPI [4] = target: T1, β2-GPI; assay: ELISA on solid-phase lipid (ligand)-coated plate: β2-GPI binding detected with Cof-22; details: Experiment 1; Absorbance, mean ± SD, n = 3; solid-phase lipid, β2-GPI 15 μg/mL
Procedure: as §4, §5, §6

APS-2 = assay: ELISA on solid-phase lipid-coated plate: binding of antibodies of APS patient serum APS-2; parameters: species or system human; details: Absorbance, mean ± SD, n = 3; for Binding of protein-dependent oxLig-1 antibody, APS-2: Experiment 2, synthesized oxLig-1-solidified plate, added protein 15 μg/mL
Procedure: as §7, §5, §6

EY2C9 = assay: ELISA on solid-phase lipid (ligand)-coated plate: EY2C9 binding in presence of β2-GPI; parameters: species or system human; details: Absorbance, mean ± SD, n = 3; for Binding of protein-dependent oxLig-1 antibody, EY2C9: Experiment 2, synthesized oxLig-1-solidified plate, added protein 15 μg/mL
Procedure: as §4, §5, §6

β2-GPI [5] = assay: ELISA on solid-phase lipid (ligand)-coated plate: β2-GPI binding detected with Cof-22; parameters: species or system human; details: Experiment 2; Absorbance, mean ± SD, n = 3; synthesized oxLig-1-solidified plate, added protein 15 μg/mL
Procedure: as §4, §5, §6

[6] = Experiment 1, solid-phase lipid, β2-GPI 15 μg/mL
[7] = Experiment 1, solid-phase lipid, β2-GPI 15 μg/mL, serum with β2-GPI removed

Row | binding to solid phase WB-CAL-1 in the presence of β2-GPI (WB-CAL-1 [1]) | binding to solid phase β2-GPI (β2-GPI [2]) | Binding of β2-GPI-dependent aCL, WB-CAL-1 (WB-CAL-1 [3]; [6]) | Binding of β2-GPI-dependent aCL, APS-1 (APS-1; [7]) | Binding of β2-GPI-dependent aCL, Cof-22 (β2-GPI [4]) | Binding of β2-GPI-dependent aCL, APS-2 (APS-2; [7]) | Binding of β2-GPI-dependent aCL, EY2C9 (EY2C9; [6]) | Binding of protein-dependent oxLig-1 antibody, WB-CAL-1 (WB-CAL-1 [3]) | antibody binding to solid-phase oxLig-1 provided by added protein (anti-β2-GPI antibodies; Exp-2, result in words) | Binding of protein-dependent oxLig-1 antibody, APS-1 (APS-1) | Binding of protein-dependent oxLig-1 antibody, Cof-22 (β2-GPI [5]) | Binding of protein-dependent oxLig-1 antibody, APS-2 (APS-2) | Binding of protein-dependent oxLig-1 antibody, EY2C9 (EY2C9) | Molecule | cross-reaction of autoantibodies derived from APS with β2-GPI complexed with lipid (anti-β2-GPI antibodies; result in words)
1 | did not | did not show any specific binding | – | – | – | – | – | – | – | – | – | – | – | CCCCCCCC/C=C\CCCCCCCC(=O)OC[C@H](COP(=O)(O)OCCN)OC(=O)CCCCCCC/C=C\CCCCCCCC [DOPE] | –
2 | dose-dependent binding | large extent of binding | 1.361 ± 0.008 | 2.099 ± 0.216 | 1.132 ± 0.025 | 1.282 ± 0.041 | 1.269 ± 0.014 | – | – | – | – | – | – | Cardiolipin [CL, reference compound] | cross-reacted
3 | – | – | – | – | – | – | – | 0.006 ± 0.001 | no antibody binding | 0.018 ± 0.011 | 0.049 ± 0.001 | 0.015 ± 0.002 | 0.006 ± 0.001 | Haptoglobin: protein having sushi domains, without PL binding property | –
4 | – | – | – | – | – | – | – | 0.006 ± 0.002 | – | 0.009 ± 0.004 | 0.042 ± 0.001 | 0.016 ± 0.001 | 0.004 ± 0.002 | Ovalbumin: control protein added in Experiment 2 (protein, UniProt P01012 2-386, looked up) Ovalbumin: GSIGAASMEFCFDVFKELKVHHANENIFYCPIAIMSALAMVYLGAKDSTRTQINKVVRFDKLPGFGDSIEAQCGTSVNVHSSLRDILNQITKPNDVYSFSLASRLYAEERYPILPEYLQCVKELYRGGLEPINFQTAADQARELINSWVESQTNGIIRNVLQPSSVDSQTAMVLVNAIVFKGLWEKAFKDEDTQAMPFRVTEQESKPVQMMYQIGLFRVASMASEKMKILELPFASGTMSMLVLLPDEVSGLEQLESIINFEKLTEWTSSNVMEERKIKVYLPRMKMEEKYNLTSVLMAMGITDVFSSSANLSGISSAESLKISQAVHAAHAEINEAGREVVGSAEAGVDAASVSEEFRADHPFLFCIKHIATNAVLFFGRCVSP | –
